The supplement of paper PMC4862054

system: DU-4475; experiment: normalised response (% of control), CellTox Green; higher = less cell death (100 = DMSO, 0 = benzethonium chloride kill control); conditions: incubation time: 72 h
Method in brief: (§1)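 Two readouts were taken after 72 h: CellTox Green fluorescence (485/520 nm) first, then CellTiter-Glo luminescence after 10 min at room temperature. Breast cancer cell lines had been seeded as 20 µl suspension into 384-well plates holding compound at 5 concentrations in 10-fold steps across a compound-specific 10,000-fold range. Each value is a normalised signal at a single concentration, with plates scaled to 0.1 % DMSO (100) and a positive kill control (0).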

Row | SMILES | normalised response [%]
1 | CC(C)(C)c1nc(-c2cccc(NS(=O)(=O)c3c(F)cccc3F)c2F)c(-c2ccnc(N)n2)s1 [Dabrafenib] (25 nM) | 99.8
2 | CO[C@@]12[C@H](COC(N)=O)C3=C(C(=O)C(C)=C(N)C3=O)N1C[C@@H]1N[C@@H]12 [Mitomycin C] (100 nM) | 95.3
3 | CC1(C)CCC(c2ccc(Cl)cc2)=C(CN2CCN(c3ccc(C(=O)NS(=O)(=O)c4ccc(N[C@H](CCN5CCOCC5)CSc5ccccc5)c(S(=O)(=O)C(F)(F)F)c4)cc3)CC2)C1 [Navitoclax] (100 nM) | 96.2
4 | CC(C)n1cnc2c(NCCc3ccc(O)cc3)nc(-c3csc4ccccc34)nc21 [StemRegenin 1] (100 nM) | 102

system: BT-474; experiment: as above; conditions: incubation time: 72 h
Method in brief: as §1

Row | SMILES | normalised response [%]
5 | CCn1c(C(=O)N(C2CC2)C2CC2)cc2c3c(ncn3C)c(Nc3cc(C)n(C)n3)nc21 (100 nM) | 101
6 | COc1ccc(S(=O)(=O)Nc2cccnc2Nc2ccc(O)cc2)cc1 [ABT-751] (100 nM) | 92.9
7 | CCNC(=O)CCC/C=C\C[C@@H]1[C@@H](/C=C/[C@@H](O)CCc2ccccc2)[C@H](O)C[C@@H]1O [Bimatoprost] (55 nM) | 98.7
8 | COc1cc(Nc2c(C#N)cnc3cc(OCCCN4CCN(C)CC4)c(OC)cc23)c(Cl)cc1Cl [Bosutinib] (100 nM) | 101
9 | CCN(CC)CCCC(C)Nc1ccnc2cc(Cl)ccc12 (stereo not given) [Chloroquine] (1000 nM) | 79.8
10 | CC(C)(C)c1nc(-c2cccc(NS(=O)(=O)c3c(F)cccc3F)c2F)c(-c2ccnc(N)n2)s1 [Dabrafenib] (25 nM) | 103
11 | CO[C@@]12[C@H](COC(N)=O)C3=C(C(=O)C(C)=C(N)C3=O)N1C[C@@H]1N[C@@H]12 [Mitomycin C] (100 nM) | 100
12 | CC1(C)CCC(c2ccc(Cl)cc2)=C(CN2CCN(c3ccc(C(=O)NS(=O)(=O)c4ccc(N[C@H](CCN5CCOCC5)CSc5ccccc5)c(S(=O)(=O)C(F)(F)F)c4)cc3)CC2)C1 [Navitoclax] (100 nM) | 99.4
13 | CC(C)n1cnc2c(NCCc3ccc(O)cc3)nc(-c3csc4ccccc34)nc21 [StemRegenin 1] (100 nM) | 80

system: CAL-120; experiment: as above; conditions: incubation time: 72 h
Method in brief: as §1

Row | SMILES | normalised response [%]
14 | CCn1c(C(=O)N(C2CC2)C2CC2)cc2c3c(ncn3C)c(Nc3cc(C)n(C)n3)nc21 (100 nM) | 90.4
15 | COc1ccc(S(=O)(=O)Nc2cccnc2Nc2ccc(O)cc2)cc1 [ABT-751] (100 nM) | 94.7
16 | CCNC(=O)CCC/C=C\C[C@@H]1[C@@H](/C=C/[C@@H](O)CCc2ccccc2)[C@H](O)C[C@@H]1O [Bimatoprost] (55 nM) | 98.3
17 | COc1cc(Nc2c(C#N)cnc3cc(OCCCN4CCN(C)CC4)c(OC)cc23)c(Cl)cc1Cl [Bosutinib] (100 nM) | 99.3
18 | CCN(CC)CCCC(C)Nc1ccnc2cc(Cl)ccc12 (stereo not given) [Chloroquine] (1000 nM) | 103
19 | CC(C)(C)c1nc(-c2cccc(NS(=O)(=O)c3c(F)cccc3F)c2F)c(-c2ccnc(N)n2)s1 [Dabrafenib] (25 nM) | 105
20 | CO[C@@]12[C@H](COC(N)=O)C3=C(C(=O)C(C)=C(N)C3=O)N1C[C@@H]1N[C@@H]12 [Mitomycin C] (100 nM) | 101
21 | CC1(C)CCC(c2ccc(Cl)cc2)=C(CN2CCN(c3ccc(C(=O)NS(=O)(=O)c4ccc(N[C@H](CCN5CCOCC5)CSc5ccccc5)c(S(=O)(=O)C(F)(F)F)c4)cc3)CC2)C1 [Navitoclax] (100 nM) | 92.1
22 | CC(C)n1cnc2c(NCCc3ccc(O)cc3)nc(-c3csc4ccccc34)nc21 [StemRegenin 1] (100 nM) | 102

system: HCC1937; experiment: as above; conditions: incubation time: 72 h
Method in brief: as §1

Row | SMILES | normalised response [%]
23 | CCn1c(C(=O)N(C2CC2)C2CC2)cc2c3c(ncn3C)c(Nc3cc(C)n(C)n3)nc21 (100 nM) | 57.1
24 | COc1ccc(S(=O)(=O)Nc2cccnc2Nc2ccc(O)cc2)cc1 [ABT-751] (100 nM) | 110
25 | CCNC(=O)CCC/C=C\C[C@@H]1[C@@H](/C=C/[C@@H](O)CCc2ccccc2)[C@H](O)C[C@@H]1O [Bimatoprost] (55 nM) | 76.7
26 | COc1cc(Nc2c(C#N)cnc3cc(OCCCN4CCN(C)CC4)c(OC)cc23)c(Cl)cc1Cl [Bosutinib] (100 nM) | 54.8
27 | CCN(CC)CCCC(C)Nc1ccnc2cc(Cl)ccc12 (stereo not given) [Chloroquine] (1000 nM) | 102
28 | CC(C)(C)c1nc(-c2cccc(NS(=O)(=O)c3c(F)cccc3F)c2F)c(-c2ccnc(N)n2)s1 [Dabrafenib] (25 nM) | 94.8
29 | CO[C@@]12[C@H](COC(N)=O)C3=C(C(=O)C(C)=C(N)C3=O)N1C[C@@H]1N[C@@H]12 [Mitomycin C] (100 nM) | 84.9
30 | CC1(C)CCC(c2ccc(Cl)cc2)=C(CN2CCN(c3ccc(C(=O)NS(=O)(=O)c4ccc(N[C@H](CCN5CCOCC5)CSc5ccccc5)c(S(=O)(=O)C(F)(F)F)c4)cc3)CC2)C1 [Navitoclax] (100 nM) | 67.1
31 | CC(C)n1cnc2c(NCCc3ccc(O)cc3)nc(-c3csc4ccccc34)nc21 [StemRegenin 1] (100 nM) | 98.2

system: MDA-MB-453; experiment: as above; conditions: incubation time: 72 h
Method in brief: as §1

Row | SMILES | normalised response [%]
32 | CCn1c(C(=O)N(C2CC2)C2CC2)cc2c3c(ncn3C)c(Nc3cc(C)n(C)n3)nc21 (100 nM) | 99.3
33 | COc1ccc(S(=O)(=O)Nc2cccnc2Nc2ccc(O)cc2)cc1 [ABT-751] (100 nM) | 98
34 | CCNC(=O)CCC/C=C\C[C@@H]1[C@@H](/C=C/[C@@H](O)CCc2ccccc2)[C@H](O)C[C@@H]1O [Bimatoprost] (55 nM) | 97.6
35 | COc1cc(Nc2c(C#N)cnc3cc(OCCCN4CCN(C)CC4)c(OC)cc23)c(Cl)cc1Cl [Bosutinib] (100 nM) | 100
36 | CCN(CC)CCCC(C)Nc1ccnc2cc(Cl)ccc12 (stereo not given) [Chloroquine] (1000 nM) | 96.3
37 | CC(C)(C)c1nc(-c2cccc(NS(=O)(=O)c3c(F)cccc3F)c2F)c(-c2ccnc(N)n2)s1 [Dabrafenib] (25 nM) | 105
38 | CO[C@@]12[C@H](COC(N)=O)C3=C(C(=O)C(C)=C(N)C3=O)N1C[C@@H]1N[C@@H]12 [Mitomycin C] (100 nM) | 102
39 | CC1(C)CCC(c2ccc(Cl)cc2)=C(CN2CCN(c3ccc(C(=O)NS(=O)(=O)c4ccc(N[C@H](CCN5CCOCC5)CSc5ccccc5)c(S(=O)(=O)C(F)(F)F)c4)cc3)CC2)C1 [Navitoclax] (100 nM) | 92
40 | CC(C)n1cnc2c(NCCc3ccc(O)cc3)nc(-c3csc4ccccc34)nc21 [StemRegenin 1] (100 nM) | 109
